Laboratory results: US20190167694A1, “NEW THERAPEUTICS USES” (NOVARTIS AG, priority 2016, published 2019)

Key:
[1] = molecular target: T1, TEC (Homo sapiens, UniProt P42680); test: Biochemical TEC assay (Caliper LabChip)
T1 sequence (P42680 1-631): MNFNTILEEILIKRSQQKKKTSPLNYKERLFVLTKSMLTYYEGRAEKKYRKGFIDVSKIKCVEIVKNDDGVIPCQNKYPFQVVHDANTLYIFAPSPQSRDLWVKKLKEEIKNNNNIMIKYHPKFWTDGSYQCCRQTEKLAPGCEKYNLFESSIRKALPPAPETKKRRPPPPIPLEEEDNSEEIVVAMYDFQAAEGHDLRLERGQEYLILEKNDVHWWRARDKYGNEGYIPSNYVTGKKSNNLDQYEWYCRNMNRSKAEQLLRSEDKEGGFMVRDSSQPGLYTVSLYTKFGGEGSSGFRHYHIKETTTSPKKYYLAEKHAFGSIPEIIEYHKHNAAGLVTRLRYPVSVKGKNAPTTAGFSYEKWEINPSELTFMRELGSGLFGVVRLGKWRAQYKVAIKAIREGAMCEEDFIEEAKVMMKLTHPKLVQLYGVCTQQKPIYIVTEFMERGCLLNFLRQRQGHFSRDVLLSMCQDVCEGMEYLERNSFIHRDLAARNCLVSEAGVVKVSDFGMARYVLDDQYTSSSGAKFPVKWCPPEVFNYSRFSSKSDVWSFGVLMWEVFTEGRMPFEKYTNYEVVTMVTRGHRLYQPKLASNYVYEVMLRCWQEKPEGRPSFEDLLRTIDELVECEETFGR

[2] = molecular target: T2, TXK (Homo sapiens, UniProt P42681); test: Biochemical TXK assay (Caliper LabChip)
T2 sequence (P42681 1-527): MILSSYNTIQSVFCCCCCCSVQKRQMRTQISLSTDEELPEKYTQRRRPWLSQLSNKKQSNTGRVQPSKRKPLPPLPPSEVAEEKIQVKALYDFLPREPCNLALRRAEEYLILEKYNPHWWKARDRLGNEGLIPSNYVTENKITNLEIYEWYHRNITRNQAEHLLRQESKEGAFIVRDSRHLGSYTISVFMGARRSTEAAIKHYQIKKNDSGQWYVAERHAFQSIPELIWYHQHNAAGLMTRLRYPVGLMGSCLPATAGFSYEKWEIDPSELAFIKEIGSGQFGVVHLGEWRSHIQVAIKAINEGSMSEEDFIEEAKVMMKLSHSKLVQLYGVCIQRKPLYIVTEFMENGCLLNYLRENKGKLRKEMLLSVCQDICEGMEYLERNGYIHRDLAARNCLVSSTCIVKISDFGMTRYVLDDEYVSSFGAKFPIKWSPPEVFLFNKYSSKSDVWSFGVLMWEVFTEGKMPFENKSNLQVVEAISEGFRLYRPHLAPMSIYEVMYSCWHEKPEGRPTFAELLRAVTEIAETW
Description: The biochemical assays for ITK, TEC and TXK were carried out using Caliper Life Sciences' proprietary LabChip™ technology. This technology uses a microfluidic chip to measure the conversion of a fluorescent peptide substrate to a phosphorylated product. The product conversions were determined in the presence of various compound concentrations and IC50 values were calculated.

[3] = system: TEC-family kinases (ITK, TEC, and TXK); test: Cellular IL-2 production assay in Jurkat cells (CD3/CD28 stimulation, ELISA); assay type: cell-based; conditions: Homo sapiens, read-out: IC50, IL2-Production
Description: The cellular IL-2 Production assay was carried out using Jurkat cells.

[4] = system: anti-KLH IgM and anti-KLH IgG antibodies; test: T-cell dependent antibody response (TDAR) assay in rats, KLH immunization; assay type: in vivo, rat; conditions: for anti-KLH IgG, mean percent difference compared to vehicle controls / anti-KLH IgM, mean percent difference compared to vehicle controls: 30 mg/kg/day oral
Description: T-cells play critical roles in immune regulation. T-cell Tec family kinases are important players in T-cell function, which in turn can modulate immune function. COMPOUND A was tested in a T-cell dependent antibody response (TDAR) assay, a frequently used functional assessment of the immune system. […] On study days 11 and 25 for the main study animals and days 28 and 42 for the recovery group, animals received 300 μg of KLH (Keyhole Limpet Hemocyanin) antigen. Samples for serology assessment of anti-KLH IgM and anti-KLH IgG antibodies (study days 19, 21, 23, 25 and 36 prior to dosing from the main study animals; recovery days 42 and 53 prior to KLH injection from the recovery animals) were collected. Immunomodulatory responses in COMPOUND A-treated animals following KLH immunization were noted when values were compared to concurrent vehicle controls. […] The decreases were also observed in mean anti-KLH IgM values on study days 21, 23, 25 (primary response, time course) and day 36 (post boosting) for female rats. For anti-KLH IgG antibodies, decreases in mean concentration were apparent on study days 19, 21, 23 and 25 for both male and female rats. On study day 36, decreases in mean concentration were detected in female rats. Recovery following withdrawal of COMPOUND A treatment was noted. The COMPOUND A-related decrease of anti-KLH antibody production in both male and female rats was reversible. This included both primary response-anti-KLH IgM, and isotype switch measured by secondary anti-KLH IgG production as indicated by values that were similar to concurrent controls at the recovery sampling time points (recovery day 42 and 53).

[5] = system: BTK (TMD-8); test: cells; conditions: Homo sapiens, TMD8, 72 h, read-out: IC50, BTK (TMD-8) proliferation
Description: After 3 days, cell viability was measured using Cell Titer Glo.

[6] = system: Human CD4 T cell; test: Human CD4 T cell proliferation assay (Cell Titer Glo); assay type: cell-based; conditions: 96 h, anti-CD3/anti-CD28 beads, 4 days
Description: In the Human CD4 T cell assay, primary human CD4+ T cells isolated from a leukopak were cultured in the presence of anti-CD^3/anti-CD28 beads to stimulate T cell proliferation.

[7] = system: Mouse B cell; test: cells; conditions: 72 h, read-out: IC50, Mouse B cell proliferation
Description: Cells were incubated at 37° C. in the presence of various concentrations of compound. After 3 days, cell viability was measured using Cell Titer Glo.

[8] = female rats, study day 36 (post boosting)

Cc1cc(C(=O)Nc2nc3cccc(Cl)c3n2[C@@H]2CCCCN(C(=O)/C=C/CN(C)C)C2)ccn1 [COMPOUND A, (R,E)-N-(7-chloro-1-(1-(4-(dimethylamino)but-2-enoyl)azepan-3-yl)-1H-benzo[d]imidazol-2-yl)-2-methylisonicotinamide]
IC50, TEC biochemical [1]: single digit nM potency
IC50, TXK biochemical [2]: single digit nM potency
IC50 [3]: 0.021 µM
anti-KLH IgG, mean percent difference compared to vehicle controls ([4]; female rats, study day 19): −96%
anti-KLH IgM, mean percent difference compared to vehicle controls ([4]; female rats, study day 19): −88%
anti-KLH IgG, mean percent difference compared to vehicle controls ([4]; female rats, study day 21): −98%
anti-KLH IgM, mean percent difference compared to vehicle controls ([4]; female rats, study day 21): −75%
anti-KLH IgG, mean percent difference compared to vehicle controls ([4]; female rats, study day 23): −97%
anti-KLH IgM, mean percent difference compared to vehicle controls ([4]; female rats, study day 23): −71%
anti-KLH IgG, mean percent difference compared to vehicle controls ([4]; female rats, study day 25): −96%
anti-KLH IgM, mean percent difference compared to vehicle controls ([4]; female rats, study day 25): −63%
anti-KLH IgG, mean percent difference compared to vehicle controls [4, 8]: −69%
anti-KLH IgM, mean percent difference compared to vehicle controls [4, 8]: −67%
reversibility of decrease of anti-KLH antibody production after withdrawal of treatment ([4]; male and female rats, 30 mg/kg/day, recovery days 42 and 53): reversible
anti-KLH IgG, mean percent difference compared to vehicle controls ([4]; male rats, study day 19): −78%
anti-KLH IgM, mean percent difference compared to vehicle controls ([4]; male rats, study day 19): −67%
anti-KLH IgG, mean percent difference compared to vehicle controls ([4]; male rats, study day 21): −84%
anti-KLH IgG, mean percent difference compared to vehicle controls ([4]; male rats, study day 23): −80%
anti-KLH IgG, mean percent difference compared to vehicle controls ([4]; male rats, study day 25): −83%
IC50 [5]: 0.224 µM
IC50 [6]: 0.14 µM
IC50 [7]: 0.295 µM

C=CC(=O)N1CCC[C@@H](n2nc(-c3ccc(Oc4ccccc4)cc3)c3c(N)ncnc32)C1 [Ibrutinib, ibrutinib, reference compound]
IC50 [3]: 0.284 µM
